Reference: patent US20080070846A1, “TREATING ACUTE EXACERBATIONS OF ASTHMA USING A KETOLIDE” (Aventis Pharmaceuticals Inc, priority 2004, published 2008)

How the values were obtained:
[1] = system: adults following an acute asthma exacerbation; details: oral prednisone, over seven to ten days; cited from earlier work
[2] = system: adult patients with acute asthma; details: after seven to ten days of oral prednisone; cited from earlier work
[3] = system: children with an acute exacerbation of asthma; details: oral prednisone, after 7 days; pediatric, mean age 8.0 years; cited from earlier work
[4] = system: adults with mild asthma exacerbations; details: after 16 days of tapering oral prednisone; from 73% at onset of treatment; cited from earlier work
asthmatic patients = details: cited from earlier work
[5] = system: patients with acute exacerbations of asthma; experiment: In-clinic pulmonary function tests (PEF, FEV1, FVC, FEF25-75%); format: in vivo, human
Experimental: (§1) Patients are centrally randomized (1:1) using computer-generated codes to receive blinded treatment with either oral telithromycin 800 mg once daily (two 400 mg capsules) or placebo (two capsules identical to those containing active treatment) for ten days using a proprietary Interactive Voice Recognition System to balance the treatment assignments within each study center. The first clinic visit (Visit 1), occurring within 24 hours of initial presentation is considered to be the study baseline. At baseline, patients are randomized to telithromycin or placebo. Telephone contact is made at 24-72 hours post-randomization to review concomitant medications taken and adverse events. Visit 2 is at the end of treatment (Days 11-14), Visit 3 is a post-treatment visit (Day 28 [±3 days]), and Visit 4 is the final visit (Day 42 [±3 days]). At each visit, patients undergo respiratory examinations, pulmonary function tests, health outcome assessments, and have a review of adverse events. Vital signs and concomitant medications are also recorded. Spontaneous or induced sputum samples nasopharyngeal swabs, and serum for serology for atypical pathogens are collected at Visits 1 and 3. Patients receiving at least one dose of study treatment and having one primary efficacy endpoint value are included in the intention to treat (ITT) population.
PEF in liter/min, FEV1 in liters, FVC in liters, and FEF25-75% in liters/sec are recorded at clinic visits and are performed according to American Thoracic Society (ATS) standards. [see American Thoracic Society. Standardization of Spirometry. Am. J. Respir. Crit. Care Med. 1995; 152: 1107-1136].
(§2) Efficacy endpoints are analyzed using an analysis of covariance (ANCOVA) model using factors for treatment, study center (investigator), treatment-by-center interaction, and baseline as covariates. Longitudinal analyses are based on the average over the 6-week study period. The treatment group means and the between-group differences are estimated using the ANCOVA model and between-group tests are used to compare telithromycin with placebo. The primary efficacy assessment time point is Visit 2 (end of treatment; Days 11-14).
In the models used, treatment effect is estimated while adjusting for the factor of center and for baseline values as covariates. This adjusted model accounts for the difference in the number of patients enrolled at each center. All mean data for efficacy outcomes are presented as least square (LS) means as they result from this adjusted model.

[6] = system: patients with acute exacerbations of asthma; experiment: Morning home PEF recorded on diary cards; format: in vivo, human; details: patient-recorded; placebo 66.8 L/min
Experimental: (§3) Asthma symptoms are measured using a modified version of a previously published diary card symptom score in which patients rate the frequency and severity of symptoms on a 7-point Likert scale. [see Santanello N. C., Barber B. L., Reiss T. F, Friedman B. S., Juniper E. F., Zhang J., Measurement Characteristics of Two Asthma Symptom Diary Scales for Use in Clinical Trials. Eur. Respir. J. 1997; 10:646-651]. Daily patient diaries are also used to record asthma symptoms, study treatment dosing, albuterol use, and other concomitant medications. Patient's home PEF values are also recorded in triplicate twice daily.

[7] = system: patients with acute exacerbations of asthma; experiment: Asthma diary symptom scores in double-blind, randomized, placebo-controlled study; format: in vivo, human
Experimental: as §1, §3, §2
Improvements in asthma symptoms assessed by the patients during the ten days of study treatment are analyzed using analysis of variance (ANOVA)/ANCOVA. Time to 50% reduction of asthma symptoms is summarized for treatment groups using a Kaplan-Meier procedure.

C. pneumoniae = details: mice with acute C. pneumoniae infection; cited from earlier work
[8] = system: patients with acute exacerbations of asthma; experiment: Tolerability and safety assessment (adverse-event recording); format: in vivo, human
Experimental: Clinical safety is assessed in all patients by adverse-event recording and standard monitoring. Patients who receive at least one dose of […] and at least one safety assessment during treatment are considered evaluable for safety. All spontaneously reported adverse events and those identified by investigator observation are recorded and evaluated in terms of severity and causality.

C[C@]12C=CC(=O)C=C1CC[C@@H]1[C@@H]2C(=O)C[C@@]2(C)[C@H]1CC[C@]2(O)C(=O)CO [prednisone]
FEV1 increase, measured after bronchodilator use [1]: 0.55 L
PEF increase, measured after bronchodilator use [1]: 77 L/min
PEF improvement [2]: 46 L/min
mean increase in FEF25-75% [3]: 0.41 L/s
mean increase in FEV1 [3]: 0.37 L
mean increase in FVC [3]: 0.45 L
mean increase in PEF [3]: 78 L/min
PEF % predicted after treatment [4]: 85%

CC[C@H]1OC(=O)[C@H](C)[C@@H](O[C@H]2C[C@@](C)(OC)[C@@H](O)[C@H](C)O2)[C@H](C)[C@@H](O[C@@H]2O[C@H](C)C[C@H](N(C)C)[C@H]2O)[C@](C)(OC)C[C@@H](C)C(=O)[C@H](C)[C@@H](O)[C@]1(C)O [clarithromycin]
severity of bronchial hyperresponsiveness (asthmatic patients): reduce the severity of bronchial hyperresponsiveness

CC[C@H]1OC(=O)[C@H](C)C(=O)[C@H](C)[C@@H](O[C@@H]2O[C@H](C)C[C@H](N(C)C)[C@H]2O)[C@](C)(OC)C[C@@H](C)C(=O)[C@H](C)[C@H]2N(CCCCn3cnc(-c4cccnc4)c3)C(=O)O[C@]12C [telithromycin]
Mean change from baseline to end of treatment, FEF25-75% ([5]; 800 mg/day for ten days, N=126): 0.85 L/s
Mean change from baseline to end of treatment, FVC ([5]; 800 mg/day for ten days, N=126): 0.58 L
Mean change from baseline to end of treatment, FEV1 ([5]; 800 mg/day for ten days, N=126, LS mean, Visit 2): 0.63 L
Mean change from baseline to end of treatment, PEF ([5]; 800 mg/day for ten days, N=126, in-clinic): 115.8 L/min
mean improvement in FEV1, subgroup with infection at baseline ([5]; C. pneumoniae and/or M. pneumoniae infection at baseline, 61 telithromycin patients): 0.67 L
mean improvement in FEV1, subgroup without evidence of infection ([5]; no evidence of C. pneumoniae/M. pneumoniae infection, 44 telithromycin patients): 0.65 L
difference between treatments in FEV1 improvement, subgroup with infection at baseline ([5]; telithromycin vs placebo, 95% CI 0.11, 0.47 L, P=0.002): 0.29 L
difference between treatments in FEV1 improvement, subgroup without evidence of infection ([5]; telithromycin vs placebo, 95% CI −0.17, 0.52 L, P=0.309): 0.18 L
Difference between treatments in mean change, FEV1 ([5]; telithromycin vs placebo, P=0.001): 0.29 L
Difference between treatments in mean change, FEF25-75% ([5]; telithromycin vs placebo, P=0.004): 0.40 L/s
Difference between treatments in mean change, FVC ([5]; telithromycin vs placebo, P=0.006): 0.27 L
Difference between treatments in mean change, PEF ([5]; telithromycin vs placebo, P=0.036): 26.9 L/min
improvement in morning home PEF from baseline over the treatment period (mean) [6]: 78.3 L/min
median time to a 50% reduction in symptoms ([7]; Kaplan-Meier, placebo 8 days, P=0.031): 5 days
mean change in symptom score from baseline over the study period ([7]; entire 6-week observation period, 800 mg once daily for ten days): −51%
mean percent reduction in symptom severity from baseline to the end of treatment ([7]; oral 800 mg once daily for ten days, added to usual care, ITT N=126): −51%
proportion of patients with symptom-free days during the treatment period ([7]; placebo 8%, P=0.006): 16%
mean difference between treatments in change in symptom score over the study period ([7]; telithromycin vs placebo, 6-week period, 95% CI −24.75, −0.89%, P=0.035): −13%
mean difference between treatments in percent reduction in symptom severity, baseline to end of treatment ([7]; telithromycin vs placebo, 95% CI −36.64, −7.90%, P=0.003): −22%
culture and PCR positivity in the lungs (C. pneumoniae): reduce culture and PCR positivity
tolerability ([8]; 800 mg once daily for ten days): well tolerated
TEAEs considered possibly related to treatment, % of patients ([8]; 132 patients evaluable for safety): 20.5%
frequency of TEAEs ([8]; 132 patients evaluable for safety, placebo 39.7%): 38.6%
diarrhea possibly related to treatment ([8]; placebo 3.8%): 9.8%
